Results from ChEMBL document CHEMBL4270535, “Facile synthesis of vanillin-based novel bischalcones identifies one that induces apoptosis and displays synergy with Artemisinin in killing chloroquine resistant Plasmodium falciparum” (Eur J Med Chem, 2018).

Columns and labels:
[1] = Selectivity index, ratio of IC50 for mouse L929 cells to IC50 for synchronized ring stage of chloroquine-sensitive Plasmodium falciparum 3D7 infected in human erythrocytes; assay type: toxicity, cell-based; settings: read-out: Ratio IC50
Plasmodium falciparum [2] = test: Antiplasmodial activity against synchronized ring stage of chloroquine-resistant Plasmodium falciparum INDO infected in human erythrocytes after 48 hrs by SYBR Green 1 dye based fluorescence assay; assay type: functional, organism-based
[3] = Resistance index, ratio of IC50 for synchronized ring stage of chloroquine-resistant Plasmodium falciparum Dd2 infected in human erythrocytes to IC50 for synchronized ring stage of chloroquine-sensitive Plasmodium falciparum 3D7 infected in human erythrocytes; assay type: functional
Plasmodium falciparum [4] = test: Potentiation of artemisinin-induced antiplasmodial activity against synchronized ring stage of chloroquine-sensitive Plasmodium falciparum 3D7 infected in human erythrocytes assessed as fold reduction in artemisinin IC50 relative to artemisinin alone; assay type: functional
[5] = Selectivity index, ratio of IC50 for human HeLa cells to IC50 for synchronized ring stage of chloroquine-sensitive Plasmodium falciparum 3D7 infected in human erythrocytes; assay type: toxicity, cell-based; settings: read-out: Ratio IC50
Plasmodium falciparum [6] = test: Antiplasmodial activity against synchronized ring stage of chloroquine-resistant Plasmodium falciparum Dd2 infected in human erythrocytes after 48 hrs by SYBR Green 1 dye based fluorescence assay; assay type: functional, organism-based; settings: Dd2, 48 h
[7] = Resistance index, ratio of IC50 for synchronized ring stage of chloroquine-resistant Plasmodium falciparum INDO infected in human erythrocytes to IC50 for synchronized ring stage of chloroquine-sensitive Plasmodium falciparum 3D7 infected in human erythrocytes; assay type: functional

**Q.** What does the source list for `C[C@@H]1CC[C@H]2[C@@H](C)C(=O)O[C@@H]3O[C@@]4(C)CC[C@@H]1[C@]32OO4` [ARTEMISININ]?
**A.** selectivity ratio [1]: > 200; IC50 (Plasmodium falciparum [2]): 15 nM; Ratio IC50 [3]: 0.87; Ratio IC50 (Plasmodium falciparum [4]): 1.7 - 3.7; selectivity ratio [5]: > 200; IC50 (Plasmodium falciparum [6]): 13 nM; Ratio IC50 [7]: 1
